Experimental data as given in ChEMBL document CHEMBL5113479, “Pyrido[2,3-d]pyrimidine-2,4(1H,3H)-dione derivatives as RAF-MEK-ERK pathway signaling pathway blockers: Synthesis, cytotoxic activity, mechanistic investigation and structure-activity relationships” (Eur J Med Chem, 2022).
Blank lines part the entries; values can stand above or below the compound they belong to. Calls of active or inactive are those of the source. The rule behind the calls is not given here.

Legend:
[1] = Cytotoxicity against human C-28/I2 cells; type: toxicity, cell-based
SK-MEL-2 [2] = assay: Antiproliferative activity against human SK-MEL-2 cells assessed as inhibition of cell growth; type: functional, cell-based
A-375 [3] = assay: Cytotoxicity against human A-375 cells assessed as inhibition of cell growth; type: functional, cell-based
A-375 [4] = assay: Antiproliferative activity against human A-375 cells assessed as inhibition of cell growth measured after 72 hrs by CCK8 assay; type: functional, cell-based; conditions: A-375, 72 h
MCF7 = assay: Antiproliferative activity against human MCF7 cells assessed as inhibition of cell growth measured after 72 hrs by CCK8 assay; type: functional, cell-based; conditions: MCF7, 72 h
SK-HEP1 [5] = assay: Induction of cell cycle arrest in human SK-HEP1 cells assessed as accumulation of cells at G0/G1 phase at 2.5 uM measured after 24 hrs by propidium iodide staining based flow cytometric analysis (reference value: 48.40 %); type: functional
SK-HEP1 [6] = assay: Induction of cell cycle arrest in human SK-HEP1 cells assessed as accumulation of cells at G0/G1 phase at 1.25 uM measured after 24 hrs by propidium iodide staining based flow cytometric analysis (reference value: 48.40 %); type: functional
SK-HEP1 [7] = assay: Induction of cell cycle arrest in human SK-HEP1 cells assessed as accumulation of cells at G0/G1 phase at 5 uM measured after 24 hrs by propidium iodide staining based flow cytometric analysis (reference value: 48.40 %); type: functional
SK-HEP1 [8] = assay: Induction of cell cycle arrest in human SK-HEP1 cells assessed as accumulation of cells at G2/M phase at 1.25 uM measured after 24 hrs by propidium iodide staining based flow cytometric analysis (reference value: 18.32 %); type: functional
SK-HEP1 [9] = assay: Inhibition of colony formation in human SK-HEP1 cells assessed as reduction in number of colonies at 2 uM measured after 7 days by crystal violet staining based assay; type: functional; conditions: SK-HEP1, 168 h, time 7 day
SK-HEP1 [10] = assay: Antiproliferative activity against human SK-HEP1 cells cultured as 3D spheroids assessed as appearance of crumbled spheroids at 10 uM measured after 120 hrs by fluorescence microscopic analysis; type: functional, cell-based
SK-HEP1 [11] = assay: Induction of apoptosis in human SK-HEP1 cells assessed as upregulation of activated caspase-9 protein expression at 1 to 2 uM by Western blot analysis; type: functional, cell-based; conditions: dose 1-2 µM
SK-HEP1 [12] = assay: Inhibition of colony formation in human SK-HEP1 cells assessed as reduction in number of colonies at 0.2 uM measured after 7 days by crystal violet staining based assay; type: functional, cell-based; conditions: time 7.0 day
SK-HEP1 [13] = assay: Induction of apoptosis in human SK-HEP1 cells assessed as upregulation of activated caspase-3 protein expression at 1 to 2 uM by Western blot analysis; type: functional, cell-based; conditions: dose 1-2 µM
[14] = molecular target: T1, Mitogen-activated protein kinase; ERK1/ERK2 (Homo sapiens) (UniProt P27361+P28482); assay: Inhibition of intracellular ERK1/2 phosphorylation in human SK-HEP1 cells at 5 uM by Western blot analysis; type: cell-based
T1 sequence (P27361 whole entry, looked up): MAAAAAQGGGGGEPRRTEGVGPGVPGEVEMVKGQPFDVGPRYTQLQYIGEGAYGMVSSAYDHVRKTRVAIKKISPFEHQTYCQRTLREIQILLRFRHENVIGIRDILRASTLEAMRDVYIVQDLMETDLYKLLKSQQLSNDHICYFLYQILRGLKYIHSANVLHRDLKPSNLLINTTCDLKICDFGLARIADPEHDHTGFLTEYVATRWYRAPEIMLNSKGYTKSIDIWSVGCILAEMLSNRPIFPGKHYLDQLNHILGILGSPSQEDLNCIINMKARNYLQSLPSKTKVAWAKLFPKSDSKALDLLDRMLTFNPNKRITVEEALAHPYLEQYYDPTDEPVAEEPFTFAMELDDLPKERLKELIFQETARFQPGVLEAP
T1 sequence (P28482 whole entry, looked up): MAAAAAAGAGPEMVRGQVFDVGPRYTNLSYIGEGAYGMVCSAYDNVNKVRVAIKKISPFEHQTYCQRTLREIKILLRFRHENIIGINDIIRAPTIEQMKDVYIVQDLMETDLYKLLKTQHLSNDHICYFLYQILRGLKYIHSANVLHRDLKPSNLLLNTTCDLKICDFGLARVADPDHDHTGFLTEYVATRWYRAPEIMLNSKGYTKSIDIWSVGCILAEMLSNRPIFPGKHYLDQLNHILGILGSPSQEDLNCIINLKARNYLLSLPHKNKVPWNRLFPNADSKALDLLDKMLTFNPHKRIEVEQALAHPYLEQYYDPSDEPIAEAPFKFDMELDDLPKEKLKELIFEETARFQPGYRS

[15] = molecular target: T1, Mitogen-activated protein kinase; ERK1/ERK2 (Homo sapiens); assay: Inhibition of ERK1/2 phosphorylation in human SK-HEP1 cells by Western blot analysis; type: cell-based; conditions: dose 1-5 µM, DDE = dose-dependent effect
SK-HEP1 [16] = assay: Antiproliferative activity against human SK-HEP1 cells cultured as 3D spheroids assessed as appearance of flattened spheroids at 10 uM measured after 48 hrs by fluorescence microscopic analysis; type: functional, cell-based
SK-HEP1 [17] = assay: Induction of cell cycle arrest in human SK-HEP1 cells assessed as accumulation of cells at S phase at 1.25 uM measured after 24 hrs by propidium iodide staining based flow cytometric analysis (reference value: 33.08 %); type: functional
SK-HEP1 [18] = assay: Inhibition of cell migration in human SK-HEP1 cells at 2.5 uM measured after 12 to 24 hrs by inverted microscopy based wound healing assay; type: functional; conditions: time 12-24 hrs
SK-HEP1 [19] = assay: Induction of apoptosis in human SK-HEP1 cells assessed as downregulation of ERK1/2 protein expression by Western blot analysis; type: functional, cell-based; conditions: dose 1-5 µM, DDE = dose-dependent effect
SK-HEP1 [20] = assay: Inhibition of MEK1/2 phosphorylation in human SK-HEP1 cells by Western blot analysis; type: cell-based; conditions: dose 1-5 µM, DDE = dose-dependent effect
SK-HEP1 [21] = assay: Antiproliferative activity against human SK-HEP1 cells assessed as inhibition of cell growth measured after 72 hrs by CCK8 assay; type: functional, cell-based; conditions: SK-HEP1, 72 h
SK-HEP1 [22] = assay: Induction of cell cycle arrest in human SK-HEP1 cells assessed as accumulation of cells at S phase at 2.5 uM measured after 24 hrs by propidium iodide staining based flow cytometric analysis (reference value: 33.08 %); type: functional
SK-HEP1 [23] = assay: Induction of apoptosis in human SK-HEP1 cells assessed as downregulation of ERK1 expression at 2.5 uM measured after 48 hrs by fluorescent quantitative PCR analysis relative to control; type: functional
SK-HEP1 [24] = assay: Induction of apoptosis in human SK-HEP1 cells assessed as downregulation of B-Raf protein expression by Western blot analysis; type: functional, cell-based; conditions: dose 1-5 µM, DDE = dose-dependent effect
SK-HEP1 [25] = assay: Induction of apoptosis in human SK-HEP1 cells assessed as late apoptotic cells at 1.25 to 5 uM measured after 48 hrs by AnnexinV-FITC/propidium iodide staining based flow cytometry analysis (reference value: 0.36 %); type: functional; conditions: dose 1.25-5 µM
[26] = molecular target: T1, Mitogen-activated protein kinase; ERK1/ERK2 (Homo sapiens); assay: Inhibition of intracellular ERK1/2 phosphorylation in human A-375 cells at 5 uM by Western blot analysis; type: cell-based
[27] = Cytotoxicity against human C-28/I2 cells measured after 72 hrs by CCK8 assay; type: toxicity, cell-based
SK-HEP1 [28] = assay: Induction of cell cycle arrest in human SK-HEP1 cells assessed as accumulation of cells at G2/M phase at 2.5 uM measured after 24 hrs by propidium iodide staining based flow cytometric analysis (reference value: 18.32 %); type: functional
SK-HEP1 [29] = assay: Induction of apoptosis in human SK-HEP1 cells assessed as downregulation of ERK2 expression at 2.5 uM measured after 48 hrs by fluorescent quantitative PCR analysis relative to control; type: functional
SK-HEP1 [30] = assay: Induction of ROS production in human SK-HEP1 cells at 1 to 2 uM measured after 24 hrs by DCFH-DA staining based confocal microscopic and flow cytometry analysis; type: functional, cell-based; conditions: dose 1-2 µM
SK-HEP1 [31] = assay: Antiproliferative activity against human SK-HEP1 cells cultured as 3D spheroids assessed as appearance of collapsed spheroids at 10 uM measured after 96 hrs by fluorescence microscopic analysis; type: functional, cell-based
SK-HEP1 [32] = assay: Induction of cell cycle arrest in human SK-HEP1 cells assessed as accumulation of cells at G2/M phase at 5 uM measured after 24 hrs by propidium iodide staining based flow cytometric analysis (reference value: 18.32 %); type: functional
A-375 [33] = assay: Induction of apoptosis in human A-375 cells assessed as late apoptotic cells at 1.25 to 5 uM measured after 48 hrs by AnnexinV-FITC/propidium iodide staining based flow cytometry analysis (reference value: 1.61 %); type: functional; conditions: dose 1.25-5 µM
SK-MEL-2 [34] = assay: Antiproliferative activity against human SK-MEL-2 cells assessed as inhibition of cell growth measured after 72 hrs by CCK8 assay; type: functional, cell-based; conditions: SK-MEL-2, 72 h
SK-HEP1 [35] = assay: Induction of cell cycle arrest in human SK-HEP1 cells assessed as accumulation of cells at S phase at 5 uM measured after 24 hrs by propidium iodide staining based flow cytometric analysis (reference value: 33.08 %); type: functional

IC50 (SK-MEL-2 [2]): 13.7 µM
IC50 (A-375 [4]): 24.5 µM
IC50 (MCF7): 9.98 µM
SMILES: O=c1[nH]c2c(c(O)c1Cc1ccccc1)c(=O)n(-c1ccc(OC(F)(F)F)cc1)c(=O)n2-c1ccc(OC(F)(F)F)cc1
CC50 [1]: 35.9 µM
IC50 (A-375 [3]): 12.8 µM

inhibition [14]: Active
inhibition [15]: Dde
IC50 (SK-HEP1 [21]): 2.04 µM
IC50 (A-375 [4]): 5.2 µM
IC50 (MCF7): 3.15 µM
inhibition [26]: Active
IC50 (SK-MEL-2 [34]): 4.79 µM
SMILES: CN1CCN(c2cc(NCC(=O)Nc3cccc(Cl)c3)c3c(=O)n(C)c(=O)n(C)c3n2)CC1
Activity (SK-HEP1 [5]): 45.09%
Activity (SK-HEP1 [6]): 44.1%
Activity (SK-HEP1 [7]): 44.85%
Activity (SK-HEP1 [8]): 21.31%
inhibition at 2 µM (SK-HEP1 [9]): 100%
Activity (SK-HEP1 [10]): Active
Activity (SK-HEP1 [11]): Active
inhibition (SK-HEP1 [12]): Active
Activity (SK-HEP1 [13]): Active
Activity (SK-HEP1 [16]): Active
Activity (SK-HEP1 [17]): 34.59%
inhibition (SK-HEP1 [18]): Active
Activity (SK-HEP1 [19]): Dde
inhibition (SK-HEP1 [20]): Dde
Activity (SK-HEP1 [22]): 34.93%
Activity (SK-HEP1 [23]): 70%
Activity (SK-HEP1 [24]): Dde
Activity (SK-HEP1 [25]): 42.4%
CC50 at 72 h [27]: > 50 µM
Activity (SK-HEP1 [28]): 19.98%
Activity (SK-HEP1 [29]): 60%
Activity (SK-HEP1 [30]): Active
Activity (SK-HEP1 [31]): Active
Activity (SK-HEP1 [32]): 23.92%
Activity (A-375 [33]): 32.6%
Activity (SK-HEP1 [35]): 31.23%
